Laboratory results as given in patent publication US8110583B2, “Tetrahydroquinoline derivatives” (Merck Patent GmbH, priority 2005, dated 2012).

Tested on: cells
Experiment: Cell cycle analysis (G2/M arrest)
Type: cell-based
Conditions: single substances; no data given

Compound: N=C(N)c1ccc(OCCCCCOc2ccc(C(=N)N)cc2)cc1 [pentamidine]
- effect on the cell cycle: maintain cells in the G2/M cell cycle
